In patent publication US10772886B2, “CXCR-2 inhibitors for treating crystal arthropathy disorders” (ARDEA BIOSCIENCES, INC., priority 2016, dated 2020):

Assays:
[1] = system: rat air pouch model of crystal-induced arthropathy (MSU); assay: Rat air pouch model, Example 5 (Compound 2 in combination with colchicine); type: in vivo
Description: Sodium hydroxide (40 g, Fisher Scientific) was dissolved in de-ionized water (100 mL, dH2O) to provide a 10N solution. Uric acid (16 g, Sigma) was added to de-ionized water (3400 mL) containing sodium hydroxide solution (11.8 mL, 10N) and heated to 60° C. with constant stirring. […] The resulting clear solution was cooled to 4-8° C., resulting in the formation of crystals, which were isolated by filtration, washed three times with de-ionized wa[…]) and dried at 37° C. The dried mono sodium urate crystals were sifted into an air-tight container for storage. […] Methylcellulose (0.4 g, Sigma) was dissolved in de-ionized water (100 mL) to provide a 0.4% solution used as vehicle. […] Test compounds were suspended in vehicle to provide the desired concentrations, and diluted accordingly. […] Male Sprague-Dawley rats (Charles River Laboratories, 160-180 g) were received, individually examined and housed in cages of five rats each. The animals were in apparent good health with no clinical signs of disease or distress. The rats were placed in quarantine with daily inspections, ear notched for identification purposes and shaved at the nape of the neck. The rats were anesthetized (isoflurane), and the nape of the neck was cleansed with 70% isopropanol (Butler Animal Health Supply) followed by povidone-iodine solution (Ricca Chemical Co.). Sterile air (30 mL, 0.2 μm, Millipore) was injected subcutaneously using a 23 G×11⁄2 inch needle fixed to a 30 mL syringe. The rats were returned to routine housing with no adverse reactions observed. The rats were anesthetized (isoflurane), and the nape of the neck was cleansed with 70% isopropanol (Butler Animal Health Supply) followed by povidone-iodine solution (Ricca Chemical Co.). Sterile air (15 mL, 0.11 μm, Millipore) was injected subcutaneously using a 23 G×11⁄2 inch needle fixed to a 20 mL syringe. The rats were returned to routine housing with no adverse reactions observed. The rats were weighed and sorted into treatment groups based on average body weight. As appropriate, the rats were dosed orally with test compound or vehicle (saline alone). […] Thirty minutes after SC injection or two hours after PO dosing, MSU (15 mL) was injected into the air pouch using an 18 G×2 inch needle fitted to a 20 mL syringe. Control group was injected with 15 mL sterile saline (vehicle). The injection sites were closed (collodion, Macron) and the rats returned to their cages with no adverse effects observed. Four hours after MSU/saline injection, the rats were anesthetized and heparinized saline (5 mL, 10 U/mL) was injected into the air pouch. […] An aliquot of the exudate was transferred to green Eppendorf tubes for total white blood cell (WBC) measurement. After allowing the MSU crystals to settle out for ten minutes, an aliquot of the exudate was transferred to heparinized microtainer tubes (Becton Dickinson) for differential white blood cell counts. The remainder of the exudate was centrifuged and an aliquot of the supernatants was dispensed to labeled clear Eppendorf tubes and stored at -80° C. The rats were exsanguinated into pre-chilled serum separator tubes, processed to serum, and 0.5 mL aliquot was stored at -80° C. in labeled Eppendorf tubes. […] 90 rats were used, divided into 9 groups of 10 animals, as follows: [table]

[2] = system: rat air pouch model of crystal-induced arthropathy (MSU); assay: Rat air pouch model, Example 8 (Compound 3 in combination with colchicine); type: in vivo
Description: Sodium hydroxide (40 g, Fisher Scientific) was dissolved in de-ionized water (100 mL, dH2O) to provide a 10N solution. Uric acid (16 g, Sigma) was added to de-ionized water (3400 mL) containing sodium hydroxide solution (11.8 mL, 10N) and heated to 60° C. with constant stirring. […] The resulting clear solution was cooled to 4-8° C., resulting in the formation of crystals, which were isolated by filtration, washed three times with de-ionized wa[…]) and dried at 37° C. The dried mono sodium urate crystals were sifted into an air-tight container for storage. […] Methylcellulose (0.4 g, Sigma) was dissolved in de-ionized water (100 mL) to provide a 0.4% solution used as vehicle. […] Test compounds were suspended in vehicle to provide the desired concentrations, and diluted accordingly. […] Male Sprague-Dawley rats (Charles River Laboratories, 160-180 g) were received, individually examined and housed in cages of five rats each. The animals were in apparent good health with no clinical signs of disease or distress. The rats were placed in quarantine with daily inspections, ear notched for identification purposes and shaved at the nape of the neck. The rats were anesthetized (isoflurane), and the nape of the neck was cleansed with 70% isopropanol (Butler Animal Health Supply) followed by povidone-iodine solution (Ricca Chemical Co.). Sterile air (30 mL, 0.2 μm, Millipore) was injected subcutaneously using a 23 G×11⁄2 inch needle fixed to a 30 mL syringe. The rats were returned to routine housing with no adverse reactions observed. The rats were anesthetized (isoflurane), and the nape of the neck was cleansed with 70% isopropanol (Butler Animal Health Supply) followed by povidone-iodine solution (Ricca Chemical Co.). Sterile air (15 mL, 0.11 μm, Millipore) was injected subcutaneously using a 23 G×11⁄2 inch needle fixed to a 20 mL syringe. The rats were returned to routine housing with no adverse reactions observed. The rats were weighed and sorted into treatment groups based on average body weight. As appropriate, the rats were dosed orally with test compound or vehicle (saline alone). […] Thirty minutes after SC injection or two hours after PO dosing, MSU (15 mL) was injected into the air pouch using an 18 G×2 inch needle fitted to a 20 mL syringe. Control group was injected with 15 mL sterile saline (vehicle). The injection sites were closed (collodion, Macron) and the rats returned to their cages with no adverse effects observed. Four hours after MSU/saline injection, the rats were anesthetized and heparinized saline (5 mL, 10 U/mL) was injected into the air pouch. […] An aliquot of the exudate was transferred to green Eppendorf tubes for total white blood cell (WBC) measurement. After allowing the MSU crystals to settle out for ten minutes, an aliquot of the exudate was transferred to heparinized microtainer tubes (Becton Dickinson) for differential white blood cell counts. The remainder of the exudate was centrifuged and an aliquot of the supernatants was dispensed to labeled clear Eppendorf tubes and stored at -80° C. The rats were exsanguinated into pre-chilled serum separator tubes, processed to serum, and 0.5 mL aliquot was stored at -80° C. in labeled Eppendorf tubes. […] [table]

[3] = 0.3 umol/kg PO + Colchicine 0.001 mpk SC, Group 6
[4] = 0.3 umol/kg PO + Colchicine 0.1 mpk SC, Group 8
[5] = 3.0 umol/kg PO + Colchicine 0.001 mpk SC, Group 7
[6] = 3.0 umol/kg PO + Colchicine 0.1 mpk SC, Group 9
[7] = 10.0 umol/kg PO + Colchicine 0.3 mpk SC, Group 10

Structure (SMILES): COc1cc2c(c(OC)c1OC)-c1ccc(OC)c(=O)cc1[C@@H](NC(C)=O)CC2 [Colchicine, COLCHICINE, reference compound]
- Avg Exudate Vol ([1]; 0.1 mpk (PO), Group 3): 9.7 mL
- Avg Total WBC ([1]; 0.1 mpk (PO), Group 3): 221 ×10^6
- Neutrophils ([1]; 0.1 mpk (PO), Group 3): 163 ×10^6
- Avg Exudate Vol ([2]; 0.3 mpk SC, Group 3): 11.88 mL
- Avg Total WBC ([2]; 0.3 mpk SC, Group 3): 170 ×10^6
- Neutrophils ([2]; 0.3 mpk SC, Group 3): 121.8 ×10^6
- Avg Exudate Vol ([2]; 0.5 mpk SC, Group 4): 7.62 mL
- Avg Total WBC ([2]; 0.5 mpk SC, Group 4): 96.3 ×10^6
- Neutrophils ([2]; 0.5 mpk SC, Group 4): 64.6 ×10^6
- Avg Exudate Vol ([2]; 1.0 mpk SC, Group 5): 6.8 mL
- Avg Total WBC ([2]; 1.0 mpk SC, Group 5): 41.5 ×10^6
- Neutrophils ([2]; 1.0 mpk SC, Group 5): 7.6 ×10^6

Structure (SMILES): CC[C@@H](Nc1c(Nc2cccc(C(=O)N(C)C)c2O)c(=O)c1=O)c1ccc(C)o1 [Compound 2, (R)-2-hydroxy-N,N-dimethyl-3-((2-((1-(5-methylfuran-2-yl)propyl)amino)-3,4-dioxocyclobut-1-en-1-yl)amino)benzamide]
- Avg Exudate Vol [1, 3]: 9.6 mL
- Avg Total WBC [1, 3]: 337 ×10^6
- Neutrophils [1, 3]: 246 ×10^6
- Avg Exudate Vol [1, 4]: 7.9 mL
- Avg Total WBC [1, 4]: 153 ×10^6
- Neutrophils [1, 4]: 123 ×10^6
- Avg Exudate Vol ([1]; 0.3 umol/kg PO, Group 4): 9.8 mL
- Avg Total WBC ([1]; 0.3 umol/kg PO, Group 4): 365 ×10^6
- Neutrophils ([1]; 0.3 umol/kg PO, Group 4): 268 ×10^6
- Avg Exudate Vol [1, 5]: 8 mL
- Avg Total WBC [1, 5]: 88 ×10^6
- Neutrophils [1, 5]: 26.7 ×10^6
- Avg Exudate Vol [1, 6]: 7.5 mL
- Avg Total WBC [1, 6]: 76.8 ×10^6
- Neutrophils [1, 6]: 27.2 ×10^6
- Avg Exudate Vol ([1]; 3.0 umol/kg PO, Group 5): 7.0 mL
- Avg Total WBC ([1]; 3.0 umol/kg PO, Group 5): 78.6 ×10^6
- Neutrophils ([1]; 3.0 umol/kg PO, Group 5): 16 ×10^6

Structure (SMILES): C[C@@H](Oc1cc(NS(=O)(=O)N2CCC2)nc(SCc2cccc(F)c2F)n1)[C@@H](O)CO [Compound 3, N-(2-((2,3-difluorobenzyl)thio)-6-(((2R,3S)-3,4-dihydroxybutan-2-yl)oxy)pyrimidin-4-yl)azetidine-1-sulfonamide]
- Avg Exudate Vol [2, 7]: 9.46 mL
- Avg Total WBC [2, 7]: 69.1 ×10^6
- Neutrophils [2, 7]: 53.1 ×10^6
- Avg Exudate Vol ([2]; 10.0 umol/kg PO, Group 6): 10.93 mL
- Avg Total WBC ([2]; 10.0 umol/kg PO, Group 6): 118 ×10^6
- Neutrophils ([2]; 10.0 umol/kg PO, Group 6): 83.3 ×10^6
- Avg Exudate Vol ([2]; 30.0 umol/kg PO, Group 7): 8.42 mL
- Avg Total WBC ([2]; 30.0 umol/kg PO, Group 7): 70.5 ×10^6
- Neutrophils ([2]; 30.0 umol/kg PO, Group 7): 40.3 ×10^6
- Avg Exudate Vol ([2]; 100 umol/kg PO, Group 8): 6.56 mL
- Avg Total WBC ([2]; 100 umol/kg PO, Group 8): 56.1 ×10^6
- Neutrophils ([2]; 100 umol/kg PO, Group 8): 25.2 ×10^6
- Avg Exudate Vol ([2]; 300 umol/kg PO, Group 9): 5.7 mL
- Avg Total WBC ([2]; 300 umol/kg PO, Group 9): 24.7 ×10^6
- Neutrophils ([2]; 300 umol/kg PO, Group 9): 5.3 ×10^6
